Laboratory results taken from US12071430B2 (The Johns Hopkins University, priority 2011, dated 2024).
“Also recorded” adds a separate entry of the source.

Experiments:
CYP3A4 = target: T1, CYP3A4 (Homo sapiens, UniProt P08684); assay: CYP3A4 enzyme assay (Vivid CYP3A4 Green Screening Kit); assay type: in vitro ADME; conditions: for CYP3A4 Inhibition (compared to intracozanole at 1 um): % enzyme inhibition at 1 uM drug / % enzyme inhibition at 1 uM itraconazole; for CYP3A4 inhibition, in words: dose response or compared with itraconazole
T1 construct: purchased ThermoFisher P2857; host or cells: baculosomes (insect-cell microsomes, own knowledge)
T1 sequence (P08684 whole entry): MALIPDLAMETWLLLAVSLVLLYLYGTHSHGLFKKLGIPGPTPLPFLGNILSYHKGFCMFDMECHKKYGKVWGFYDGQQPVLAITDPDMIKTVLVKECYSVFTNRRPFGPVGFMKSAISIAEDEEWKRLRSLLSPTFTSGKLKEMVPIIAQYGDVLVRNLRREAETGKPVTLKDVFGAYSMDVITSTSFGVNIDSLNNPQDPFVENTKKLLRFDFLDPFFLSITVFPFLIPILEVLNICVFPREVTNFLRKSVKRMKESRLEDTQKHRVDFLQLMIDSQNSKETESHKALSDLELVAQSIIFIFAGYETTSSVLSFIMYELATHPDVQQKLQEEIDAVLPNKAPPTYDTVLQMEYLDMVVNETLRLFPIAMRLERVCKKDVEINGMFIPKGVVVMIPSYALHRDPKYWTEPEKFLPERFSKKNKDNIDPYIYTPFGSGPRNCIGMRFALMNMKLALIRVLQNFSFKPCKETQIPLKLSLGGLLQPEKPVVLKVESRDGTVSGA
Procedure: And CYP3A4 inhibition was initially determined using a cell-free fluorescence-based assay at a final concentration of 1 μM (Table 2).
CYP3A4 enzyme assay. CYP3A4 enzyme activity was tested using Vivid™ CYP3A4 Green Screening Kit (ThermoFisher, #P2857) using the manufacturer's protocol. Briefly, CYP3A4 baculosomes and drugs were incubated 10 min at 37° C. Then Vivid® Substrates were added and the fluorescence (ex/em:485/520) were read every 1 min for 60 minute.

HUVEC = HUVEC proliferation, [3H]-thymidine incorporation assay; assay type: cell-based, human; conditions: for Proliferation (IC50/IC50 Itra): HUVEC IC50 relative to itraconazole; for IC50: Homo sapiens, [3H]-thymidine incorporation, unit inferred, values in μM, read-out: Proliferation IC50
Procedure: The inhibitory effects of the new analogs on HUVEC proliferation were measured using a [3H]-thymidine incorporation assay. The log P values, used as an indicator of lipophilicity, were calculated using ALOGPS2.1 software. Aqueous solubility is a key physiochemical property relevant for oral absorption. We determined the solubility of each analog in 0.001 N HCl (pH=3), which represents the acidic human gastric fluid.
HUVEC Culture and Proliferation Assays. HUVEC (Lonza) were grown in EGM-2 bullet kit media (Lonza) and used at passage eight or lower. The H thymidine incorporation assays were conducted as previously described. Briefly, cells were seeded on 96-well plate at a concentration of 2000 cells/well and allowed to settle overnight. Drugs were added to each well in triplicate. After 24 hours, cells were treated with 1 μCi of [3H] thymidine for 6 h. Then cells were harvested and transferred to filtermats. The scintillation were counted and IC50 were determined using Prism software (version 6.0).

CCC(C)n1ncn(-c2ccc(N3CCN(c4ccc(OC[C@@H]5CO[C@@](Cn6cnc(C(F)(F)F)n6)(c6ccc(Cl)cc6Cl)O5)cc4)CC3)cc2)c1=O (stereo partly drawn) [Compound 51, 1-sec-butyl-4-(4-(4-(4-(((2S,4R)-2-(2,4-dichlorophenyl)-2-((3-(trifluoromethyl)-1H-1,2,4-triazol-1-yl)methyl)-1,3-dioxolan-4-yl)methoxy)phenyl)piperazin-1-yl)phenyl)-1H-1,2,4-triazol-5(4H)-one]
CYP3A4 Inhibition (compared to intracozanole at 1 um) (CYP3A4): No inhibition | CYP3A4 inhibition, in words (CYP3A4): reduced potency; also recorded: eliminated CYP3A4 inhibition | Proliferation (IC50/IC50 Itra) (HUVEC): 1.6

CCC(C)n1ncn(-c2ccc(N3CCN(c4ccc(OC[C@@H]5CO[C@@](CC6CCCC6)(c6ccc(Cl)cc6Cl)O5)cc4)CC3)cc2)c1=O (stereo partly drawn) [Compound 61, 1-sec-butyl-4-(4-(4-(4-(((2R,4R)-2-(cyclopentylmethyl)-2-(2,4-dichlorophenyl)-1,3-dioxolan-4-yl)methoxy)phenyl)piperazin-1-yl)phenyl)-1H-1,2,4-triazol-5(4H)-one]
CYP3A4 Inhibition (compared to intracozanole at 1 um) (CYP3A4): No inhibition | Proliferation (IC50/IC50 Itra) (HUVEC): 3.0

CCC(C)n1ncn(-c2ccc(N3CCN(c4ccc(OC[C@@H]5COC(c6ccc(Cl)cc6Cl)O5)cc4)CC3)cc2)c1=O (stereo partly drawn) [Compound 62, 1-sec-butyl-4-(4-(4-(4-(((4R)-2-(2,4-dichlorophenyl)-1,3-dioxolan-4-yl)methoxy)phenyl)piperazin-1-yl)phenyl)-1H-1,2,4-triazol-5(4H)-one]
CYP3A4 Inhibition (compared to intracozanole at 1 um) (CYP3A4): No inhibition | Proliferation (IC50/IC50 Itra) (HUVEC): 1.9

CCC(C)n1ncn(-c2ccc(N3CCN(c4ccc(OC[C@@H]5CO[C@@](Cn6ccnc6-c6ccccc6)(c6ccc(Cl)cc6Cl)O5)cc4)CC3)cc2)c1=O (stereo partly drawn) [Compound 46, 1-sec-butyl-4-(4-(4-(4-(((2S,4R)-2-(2,4-dichlorophenyl)-2-((2-phenyl-1H-imidazol-1-yl)methyl)-1,3-dioxolan-4-yl)methoxy)phenyl)piperazin-1-yl)phenyl)-1H-1,2,4-triazol-5(4H)-one]
CYP3A4 Inhibition (compared to intracozanole at 1 um) (CYP3A4): 0.27 | Proliferation (IC50/IC50 Itra) (HUVEC): 0.8

CCC(C)n1ncn(-c2ccc(N3CCN(c4ccc(OC[C@@H]5CO[C@@](Cc6ccccc6)(c6ccc(Cl)cc6Cl)O5)cc4)CC3)cc2)c1=O (stereo partly drawn) [Compound 60, 4-(4-(4-(4-(((2R,4R)-2-benzyl-2-(2,4-dichlorophenyl)-1,3-dioxolan-4-yl)methoxy)phenyl)piperazin-1-yl)phenyl)-1-sec-butyl-1H-1,2,4-triazol-5(4H)-one]
CYP3A4 Inhibition (compared to intracozanole at 1 um) (CYP3A4): No inhibition | Proliferation (IC50/IC50 Itra) (HUVEC): 3.0 | IC50 (HUVEC; HUVEC): 0.513 µM

CCC(C)n1ncn(-c2ccc(N3CCN(c4ccc(OC[C@@H]5CO[C@@](Cn6cc(C)nc6C)(c6ccc(Cl)cc6Cl)O5)cc4)CC3)cc2)c1=O (stereo partly drawn) [Compound 40, 1-(sec-butyl)-4-(4-(4-(4-(((2S,4R)-2-(2,4-dichlorophenyl)-2-((2,4-dimethyl-1H-imidazol-1-yl)methyl)-1,3-dioxolan-4-yl)methoxy)phenyl)piperazin-1-yl)phenyl)-1H-1,2,4-triazol-5(4H)-one]
CYP3A4 Inhibition (compared to intracozanole at 1 um) (CYP3A4): 0.45 | Proliferation (IC50/IC50 Itra) (HUVEC): 3.1

CCC(C)n1ncn(-c2ccc(N3CCN(c4ccc(OC[C@@H]5CO[C@@](Cn6cccn6)(c6ccc(Cl)cc6Cl)O5)cc4)CC3)cc2)c1=O (stereo partly drawn) [Compound 34, 4-(4-(4-(4-(((2S,4R)-2-((1H-pyrazol-1-yl)methyl)-2-(2,4-dichlorophenyl)-1,3-dioxolan-4-yl)methoxy)phenyl)piperazin-1-yl)phenyl)-1-sec-butyl-1H-1,2,4-triazol-5(4H)-one]
CYP3A4 Inhibition (compared to intracozanole at 1 um) (CYP3A4): No inhibition | Proliferation (IC50/IC50 Itra) (HUVEC): 1.8

CCC(C)n1ncn(-c2ccc(N3CCN(c4ccc(OC[C@@H]5CO[C@@](Cn6ccnc6)(c6ccc(Cl)cc6Cl)O5)cc4)CC3)cc2)c1=O (stereo partly drawn) [Compound 33, 4-(4-(4-(4-(((2S,4R)-2-((1H-imidazol-1-yl)methyl)-2-(2,4-dichlorophenyl)-1,3-dioxolan-4-yl)methoxy)phenyl)piperazin-1-yl)phenyl)-1-sec-butyl-1H-1,2,4-triazol-5(4H)-one]
CYP3A4 Inhibition (compared to intracozanole at 1 um) (CYP3A4): 1.18 | HUVEC proliferation / anti-angiogenic potency compared to itraconazole, in words (HUVEC; HUVEC): higher potency | Proliferation (IC50/IC50 Itra) (HUVEC): 0.5

CCC(C)n1ncn(-c2ccc(N3CCN(c4ccc(OC[C@@H]5CO[C@@](Cn6nnnc6-c6ccccc6)(c6ccc(Cl)cc6Cl)O5)cc4)CC3)cc2)c1=O (stereo partly drawn) [Compound 53, 1-sec-butyl-4-(4-(4-(4-(((2S,4R)-2-(2,4-dichlorophenyl)-2-((5-phenyl-1H-tetrazol-1-yl)methyl)-1,3-dioxolan-4-yl)methoxy)phenyl)piperazin-1-yl)phenyl)-1H-1,2,4-triazol-5(4H)-one]
CYP3A4 Inhibition (compared to intracozanole at 1 um) (CYP3A4): 0.22 | Proliferation (IC50/IC50 Itra) (HUVEC): 0.7

CCC(C)n1ncn(-c2ccc(N3CCN(c4ccc(OC[C@@H]5CO[C@@](CN(C)C)(c6ccc(Cl)cc6Cl)O5)cc4)CC3)cc2)c1=O (stereo partly drawn) [Compound 64, 1-(sec-butyl)-4-(4-(4-(4-(((2S,4R)-2-(2,4-dichlorophenyl)-2-((dimethylamino)methyl)-1,3-dioxolan-4-yl)methoxy)phenyl)piperazin-1-yl)phenyl)-1H-1,2,4-triazol-5(4H)-one]
CYP3A4 Inhibition (compared to intracozanole at 1 um) (CYP3A4): No inhibition | Proliferation (IC50/IC50 Itra) (HUVEC): 8.8

CCC(C)n1ncn(-c2ccc(N3CCN(c4ccc(OC[C@@H]5CO[C@@](Cn6cc(C(F)(F)F)nc6C)(c6ccc(Cl)cc6Cl)O5)cc4)CC3)cc2)c1=O (stereo partly drawn) [Compound 39, 1-(sec-butyl)-4-(4-(4-(4-(((2S,4R)-2-(2,4-dichlorophenyl)-2-((2-methyl-4-(trifluoromethyl)-1H-imidazol-1-yl)methyl)-1,3-dioxolan-4-yl)methoxy)phenyl)piperazin-1-yl)phenyl)-1H-1,2,4-triazol-5(4H)-one]
CYP3A4 Inhibition (compared to intracozanole at 1 um) (CYP3A4): No inhibition | CYP3A4 inhibition, in words (CYP3A4): eliminated CYP3A4 inhibition | CYP3A4 inhibition at 1 μM, in words (CYP3A4; initial screening at 1 μM): eliminated | Proliferation (IC50/IC50 Itra) (HUVEC): 2.8

CCC(C)n1ncn(-c2ccc(N3CCN(c4ccc(OC[C@@H]5CO[C@@](CBr)(c6ccc(Cl)cc6Cl)O5)cc4)CC3)cc2)c1=O (stereo partly drawn) [Compound 57, 4-(4-(4-(4-(((2S,4R)-2-(bromomethyl)-2-(2,4-dichlorophenyl)-1,3-dioxolan-4-yl)methoxy)phenyl)piperazin-1-yl)phenyl)-1-sec-butyl-1H-1,2,4-triazol-5(4H)-one]
CYP3A4 Inhibition (compared to intracozanole at 1 um) (CYP3A4): 0.03 | Proliferation (IC50/IC50 Itra) (HUVEC): 3.0 | IC50 (HUVEC; HUVEC): 0.569 µM

CCC(C)n1ncn(-c2ccc(N3CCN(c4ccc(OC[C@@H]5CO[C@@](Cn6nnnc6C)(c6ccc(Cl)cc6Cl)O5)cc4)CC3)cc2)c1=O (stereo partly drawn) [Compound 52, 1-sec-butyl-4-(4-(4-(4-(((2S,4R)-2-(2,4-dichlorophenyl)-2-((5-methyl-1H-tetrazol-1-yl)methyl)-1,3-dioxolan-4-yl)methoxy)phenyl)piperazin-1-yl)phenyl)-1H-1,2,4-triazol-5(4H)-one]
CYP3A4 Inhibition (compared to intracozanole at 1 um) (CYP3A4): 0.08 | Proliferation (IC50/IC50 Itra) (HUVEC): 0.6
